Laboratory results taken from patent publication US10226509B2, “Lymphangiogenesis inhibitors for cancer and for graft survival” (TUFTS UNIVERSITY, priority 2014, dated 2019).

Tests used:
AKT = assay: Western blot of AKT activation in primary LECs; assay type: cell-based, human; conditions: 0.5 μM for 0 to 60 minutes or 0 to 0.5 μM for 30 minutes
Description: Primary LECs were lysed with Triton lysis buffer supplemented with protease inhibitor cocktail and Phos-STOP phosphatase inhibitor cocktail (Roche), and subjected to electrophoresis in 4-15% SDS-PAGE gels (Bio-Rad). Protein blots of the gels were blocked with 0.5×Odyssey® blocking buffer (OBB, Li-COR). For AKT and ERK signaling, blots were incubated with primary antibodies (rabbit anti-ERK1/2, 1:7500, Cell Signaling Technology; mouse anti-phospho-ERK1/2, Thr202/Tyr204, 1:2000, Cell Signaling Technology; mouse anti-AKT1/2/3, 1:2000, Cell Signaling Technology; rabbit anti-phospho-AKT, Ser473, 1:1500, Cell Signaling Technology) overnight at 4° C. Blots were washed with 0.5% Tween-20/PBS three times, and were incubated with appropriate secondary antibodies (donkey anti-rabbit IRDye 680LT and anti-mouse IRDye 800CW, Li-Cor) for 45 min at 25° C. The blots were scanned by an Odyssey® Infrared Imaging System using Image Studio v2.0 software (Li-COR). […] Signals were detected by Odyssey® Infrared Imaging System. […]

LEC plasma membrane = assay: Immunocytochemistry / confocal microscopy of receptor clustering on LECs; assay type: cell-based, human
Description: […] Cells were blocked with Image-iT® signal enhancer (30 min, 25° C., Invitrogen) and incubated with primary antibodies (rat anti-human PDPN, 1:300, BioLegend; mouse anti-human VEGFR-3, 9D9F9, 1:100, BioLegend; rabbit anti-Gal-8, H-80, 1:100, Santa Cruz Biotechnology) in 2% BSA/PBS at 4° C. overnight. The cells were then washed with 2% BSA/PBS three times and incubated with appropriate secondary antibodies (Alexa Fluor® 488 anti-mouse, 1:200, Invitrogen; Alexa Fluor® 568 anti-rabbit, 1:200, Invitrogen; Alexa Fluor 647® anti-rat, 1:300, Jackson ImmunoResearch) at 25° C. for 1 hr. Cells were washed with PBS, slides were mounted with ProLong Gold antifade reagent with DAPI (Invitrogen) and were examined with the Leica TCS SPE imaging system (Leica).
Since galectin-glycan lattices segregate the cell surface receptors into discrete domains to initiate cell signaling (Lajoie, P., et al. 2009. J Cell Biol 185:381-385), assays were performed to determine whether Gal-8 clusters PDPN and VEGFR-3 on LEC plasma membrane. LECs were treated with Gal-8 for 15 minutes, fixed, stained with anti-PDPN, VEGFR-3 and Gal-8 antibodies, and examined by confocal microscopy. In control cells, which were incubated with buffer only, both PDPN and VEGFR-3 were homogenously distributed all over the LEC and in cell borders; endogenous Gal-8 was mainly distributed in cytosol (FIG. 9A-FIG. 9D). […]

PDPN and integrin α5β1 = molecular target: T1, PDPN and integrin α5β1 (Homo sapiens, UniProt P05556+P08648+Q86YL7); assay: Immunoprecipitation with anti-PDPN from LEC lysates; assay type: cell-based; conditions: galectin-8 for 15 min at 37° C.
T1 construct: endogenous in cells; host or cells: primary lymphatic endothelial cells (LECs)
T1 sequence (Q86YL7 23-162): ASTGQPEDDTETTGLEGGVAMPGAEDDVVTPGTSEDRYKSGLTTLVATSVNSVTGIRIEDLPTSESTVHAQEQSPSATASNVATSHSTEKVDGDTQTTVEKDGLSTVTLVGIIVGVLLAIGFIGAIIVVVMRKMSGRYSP
T1 sequence (P08648 42-894 limits assumed): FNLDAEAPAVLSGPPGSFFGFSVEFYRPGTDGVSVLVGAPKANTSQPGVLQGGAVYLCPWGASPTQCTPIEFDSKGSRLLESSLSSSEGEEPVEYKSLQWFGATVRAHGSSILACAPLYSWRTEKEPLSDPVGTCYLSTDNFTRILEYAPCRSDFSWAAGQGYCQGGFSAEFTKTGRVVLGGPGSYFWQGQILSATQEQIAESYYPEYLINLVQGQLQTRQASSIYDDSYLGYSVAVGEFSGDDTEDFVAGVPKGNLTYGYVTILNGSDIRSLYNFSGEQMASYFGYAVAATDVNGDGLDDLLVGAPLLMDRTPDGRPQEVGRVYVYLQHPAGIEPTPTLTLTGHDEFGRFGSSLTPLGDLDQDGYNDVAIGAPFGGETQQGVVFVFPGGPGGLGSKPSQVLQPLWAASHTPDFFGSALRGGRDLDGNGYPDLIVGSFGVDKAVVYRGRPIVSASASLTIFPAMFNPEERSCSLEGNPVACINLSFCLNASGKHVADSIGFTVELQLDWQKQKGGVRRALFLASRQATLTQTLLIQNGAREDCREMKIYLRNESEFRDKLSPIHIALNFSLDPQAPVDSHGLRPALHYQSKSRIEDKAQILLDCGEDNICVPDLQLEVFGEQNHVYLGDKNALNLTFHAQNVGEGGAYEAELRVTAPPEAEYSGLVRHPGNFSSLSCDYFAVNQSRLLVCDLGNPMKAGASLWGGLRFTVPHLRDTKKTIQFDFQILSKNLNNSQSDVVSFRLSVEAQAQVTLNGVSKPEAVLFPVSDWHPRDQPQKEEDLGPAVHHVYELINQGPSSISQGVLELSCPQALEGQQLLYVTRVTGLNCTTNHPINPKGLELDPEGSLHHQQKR
T1 sequence (P08648 895-1049 limits assumed): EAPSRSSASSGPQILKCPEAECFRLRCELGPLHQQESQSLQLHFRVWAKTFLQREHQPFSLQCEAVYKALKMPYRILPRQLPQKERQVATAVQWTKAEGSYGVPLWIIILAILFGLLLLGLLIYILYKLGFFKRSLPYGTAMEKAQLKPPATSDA
T1 sequence (P05556 21-798): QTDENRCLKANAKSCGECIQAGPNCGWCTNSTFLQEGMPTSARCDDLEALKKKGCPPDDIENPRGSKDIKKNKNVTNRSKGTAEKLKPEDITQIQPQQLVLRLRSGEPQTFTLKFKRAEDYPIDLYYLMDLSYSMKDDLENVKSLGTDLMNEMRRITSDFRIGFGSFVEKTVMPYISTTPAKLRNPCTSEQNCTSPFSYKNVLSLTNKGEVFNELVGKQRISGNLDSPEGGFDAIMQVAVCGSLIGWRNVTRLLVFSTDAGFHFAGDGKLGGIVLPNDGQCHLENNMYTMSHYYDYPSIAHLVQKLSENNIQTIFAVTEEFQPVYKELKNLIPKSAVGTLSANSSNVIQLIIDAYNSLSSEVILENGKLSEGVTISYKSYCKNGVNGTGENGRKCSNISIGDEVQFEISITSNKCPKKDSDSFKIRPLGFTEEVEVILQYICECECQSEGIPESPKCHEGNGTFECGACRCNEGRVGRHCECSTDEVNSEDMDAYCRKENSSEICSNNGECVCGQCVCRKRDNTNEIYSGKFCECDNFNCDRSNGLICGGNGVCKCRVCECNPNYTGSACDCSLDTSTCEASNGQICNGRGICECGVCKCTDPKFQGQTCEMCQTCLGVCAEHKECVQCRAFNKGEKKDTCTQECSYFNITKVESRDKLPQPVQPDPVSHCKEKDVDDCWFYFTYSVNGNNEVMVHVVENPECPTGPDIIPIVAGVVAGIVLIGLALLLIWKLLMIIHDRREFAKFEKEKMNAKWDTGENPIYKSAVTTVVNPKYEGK
Description: Mouse isotype antibody (15 μg, Santa Cruz Biotechnology) and anti-PDPN (15 μg, clone E-1, Santa Cruz Biotechnology) were immobilized onto AminoLink Plus coupling resin (Pierce) by sodium cyanoborohydride according to manufacturer's instructions. Primary LECs were serum-starved overnight and treated with galectin-8 (0.2 μM) for 15 min at 37° C. After treatment, cells were lysed with IP lysis/wash buffer (25 mM Tris, 150 mM NaCl, 1 mM EDTA, 1% NP-40, 5% glycerol; pH 7.4) supplemented with protease inhibitor cocktails (Roche). After centrifugation (10 min, 13,000 rpm), supernatants (500 μg protein lysates) were pre-cleared by incubation for 1 hour with Pierce control agarose resin at 4° C. The clarified samples were incubated with the Ab-conjugated agarose resins overnight at 4° C. Immunoprecipitates were washed three times with IP lysis/wash buffer and once with conditioning buffer provided by the kit (Pierce). The bound proteins were eluted with low pH elution buffer, neutralized with Tris-HCl (pH 9.0), and analyzed with control inputs by western blotting using anti-integrin al (1:1,000, Abcam), anti-integrin α5 (clone H-104, 1:1,000, Santa Cruz Biotechnology), anti-integrin ([…] (clone N-20, 1:1,000, Santa Cruz Biotechnology), anti-PDPN, anti-galectin-8 (clone NBP1-66520, 1:1,000, Novus Biologicals) and anti-GAPDH as described in examples herein. […]

Gal-8: recombinant galectin-8, tandem-repeat type galectin with two different CRDs
phosphorylation of AKT (in words) (AKT): induced phosphorylation of AKT and ERK1/2 in time- and dose-dependent manner
distribution of PDPN and VEGFR-3 on LECs (LEC plasma membrane; Gal-8 for 15 minutes): caused dramatic redistribution and clustering of PDPN and VEGFR-3 on LEC plasma membrane
distribution of PDPN and integrin β1 on LECs (LEC plasma membrane; galectin-8 for 15 minutes, no permeabilization): caused dramatic redistribution and clustering of PDPN and integrin β1 on LEC plasma membrane
association between PDPN and integrin α5β1 (PDPN and integrin α5β1): increased association between PDPN and integrin α5β1
